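Each compound was tested at five concentrations against cells in 96-well plates for 48 hours. The concentration for full growth arrest is given as TGI.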
Experiments:
Assay in all cases: NCI tumour cell line growth inhibition, 48 h
[1] = test system: A498 renal
[2] = test system: A549 NSCLC
[3] = test system: CAKI-1 renal
[4] = test system: CCRF-CEM leukemia
[5] = test system: COLO 205 colon
[6] = test system: DLD-1 colon
[7] = test system: DMS 114 small cell lung
[8] = test system: DMS 273 small cell lung
[9] = test system: EKVX NSCLC
[10] = test system: HCC-2998 colon
[11] = test system: HCT-116 colon
[12] = test system: HCT-15 colon
[13] = test system: HL-60(TB) leukemia
[14] = test system: HOP-18 NSCLC
[15] = test system: HOP-62 NSCLC
[16] = test system: HOP-92 NSCLC
[17] = test system: HT29 colon
[18] = test system: IGROV1 ovarian
[19] = test system: K-562 leukemia
[20] = test system: KM12 colon
[21] = test system: KM20L2 colon
[22] = test system: LOX IMVI melanoma
[23] = test system: M19-MEL melanoma
[24] = test system: MCF7 breast
[25] = test system: NCI-H226 lung
[26] = test system: NCI-H23 lung
[27] = test system: NCI-H460 lung
[28] = test system: NCI-H522 lung
[29] = test system: NCI/ADR-RES ovarian
[30] = test system: OVCAR-4 ovarian
[31] = test system: OVCAR-5 ovarian
[32] = test system: OVCAR-8 ovarian
[33] = test system: P388/ADR leukemia
[34] = test system: RPMI-8226 leukemia
[35] = test system: RXF 393 renal
[36] = test system: SF-268 CNS
[37] = test system: SF-295 CNS
[38] = test system: SF-539 CNS
[39] = test system: SK-MEL-2 melanoma
[40] = test system: SK-MEL-28 melanoma
[41] = test system: SK-MEL-5 melanoma
[42] = test system: SK-OV-3 ovarian
[43] = test system: SN12C renal
[44] = test system: SN12K1 renal
[45] = test system: SNB-19 CNS
[46] = test system: SNB-75 CNS
[47] = test system: SNB-78 CNS
[48] = test system: SW-620 colon
[49] = test system: U251 CNS
[50] = test system: UACC-257 melanoma
[51] = test system: UACC-62 melanoma
[52] = test system: UO-31 renal
[53] = test system: XF 498 CNS
[54] = test system: ACHN renal
[55] = test system: LXFL 529 NSCLC
[56] = test system: M14 melanoma
[57] = test system: MOLT-4 leukemia
[58] = test system: RXF-631 renal
[59] = test system: SR leukemia
[60] = test system: TK-10 renal
[61] = test system: 786-0 renal
[62] = test system: MALME-3M melanoma
[63] = test system: OVCAR-3 ovarian

What does the source list for `Oc1c2c(c3c4c1N=CC=4CCN=3)-c1c(Br)cc(Br)cc1CCN2`?
TGI [1]: 24.7 µM; TGI [2]: 10.3 µM; TGI [3]: 51.1 µM; TGI [4]: 6.7 µM; TGI [5]: 2.62 µM; TGI [6]: 3.85 µM; TGI [7]: 7.12 µM; TGI [8]: 11.8 µM; TGI [9]: 17.4 µM; TGI [10]: 4.72 µM; TGI [11]: 4.47 µM; TGI [12]: 15.4 µM; TGI [13]: 4.09 µM; TGI [14]: 7.91 µM; TGI [15]: 29.8 µM; TGI [16]: 26.7 µM; TGI [17]: 7.66 µM; TGI [18]: 13.8 µM; TGI [19]: 7.57 µM; TGI [20]: 9.21 µM; TGI [21]: 8.2 µM; TGI [22]: 4.06 µM; TGI [23]: 3.33 µM; TGI [24]: 4.16 µM; TGI [25]: 16.8 µM; TGI [26]: 3.88 µM; TGI [27]: 12 µM; TGI [28]: 4.2 µM; TGI [29]: 12.5 µM; TGI [30]: 6.23 µM; TGI [31]: 8.66 µM; TGI [32]: 12.1 µM; TGI [33]: 5.83 µM; TGI [34]: 17.5 µM; TGI [35]: 20.2 µM; TGI [36]: 15.5 µM; TGI [37]: 11 µM; TGI [38]: 9.46 µM; TGI [39]: 13.5 µM; TGI [40]: 21.8 µM; TGI [41]: 3.38 µM; TGI [42]: 24.9 µM; TGI [43]: 5.86 µM; TGI [44]: 15.4 µM; TGI [45]: > 35.6 µM; TGI [46]: 22.6 µM; TGI [47]: 29.2 µM; TGI [48]: 6.03 µM; TGI [49]: 12.2 µM; TGI [50]: 2.86 µM; TGI [51]: 2.77 µM; TGI [52]: 23.1 µM; TGI [53]: > 38.5 µM

Which results are given for `Cc1ccc([N+](=O)[O-])cc1NC(=O)C(=O)C(C(=O)c1ccccc1F)C1OC(=O)c2ccccc21` (configuration not stated)?
TGI [1]: > 100 µM; TGI [2]: > 100 µM; TGI [54]: > 100 µM; TGI [3]: > 100 µM; TGI [4]: > 100 µM; TGI [5]: > 100 µM; TGI [6]: > 100 µM; TGI [7]: 61.2 µM; TGI [8]: > 100 µM; TGI [9]: > 100 µM; TGI [10]: 84.6 µM; TGI [11]: 91.8 µM; TGI [12]: > 100 µM; TGI [13]: > 100 µM; TGI [15]: > 100 µM; TGI [16]: > 100 µM; TGI [17]: > 100 µM; TGI [18]: > 100 µM; TGI [19]: > 100 µM; TGI [20]: > 100 µM; TGI [21]: > 100 µM; TGI [22]: 90.3 µM; TGI [55]: > 100 µM; TGI [56]: > 100 µM; TGI [23]: > 100 µM; TGI [57]: > 100 µM; TGI [25]: 69.6 µM; TGI [26]: > 100 µM; TGI [27]: > 100 µM; TGI [28]: 59.2 µM; TGI [30]: > 100 µM; TGI [31]: > 100 µM; TGI [32]: 90.8 µM; TGI [34]: > 100 µM; TGI [35]: 53.9 µM; TGI [58]: > 100 µM; TGI [36]: 98.8 µM; TGI [37]: > 100 µM; TGI [38]: 67.3 µM; TGI [39]: > 100 µM; TGI [40]: > 100 µM; TGI [41]: > 100 µM; TGI [42]: > 100 µM; TGI [43]: > 100 µM; TGI [45]: 75.5 µM; TGI [46]: > 100 µM; TGI [47]: > 100 µM; TGI [59]: > 100 µM; TGI [48]: > 100 µM; TGI [60]: > 100 µM; TGI [49]: 43.6 µM; TGI [50]: > 100 µM; TGI [51]: > 100 µM; TGI [52]: > 100 µM; TGI [53]: > 100 µM

For `CC(O)C(N=Cc1nc(-c2ccccc2)oc1O)C(=O)O` (configuration not stated), which TGI [61] is on record?
Its TGI is > 100 µM.

What about the TGI [1] of the same compound?
The TGI was > 100 µM.

What about the TGI [2] of the same compound?
Its TGI is > 100 µM.

And the TGI [54]?
The TGI was > 100 µM.

What about the TGI [3] of the same compound?
The TGI was > 100 µM.

What about the TGI [4] of the same compound?
The TGI was > 100 µM.

And the TGI [5]?
The TGI was > 100 µM.

And the TGI [6]?
Its TGI is > 100 µM.

And the TGI [7]?
The TGI was > 100 µM.

What about the TGI [8] of the same compound?
Its TGI is > 100 µM.

And the TGI [9]?
The TGI was > 100 µM.

What about the TGI [10] of the same compound?
The TGI was > 100 µM.

What about the TGI [11] of the same compound?
Its TGI is > 100 µM.

What about the TGI [14] of the same compound?
Its TGI is > 100 µM.

And the TGI [15]?
The TGI was > 100 µM.

And the TGI [16]?
The TGI was > 100 µM.

What about the TGI [17] of the same compound?
The TGI was > 100 µM.

What about the TGI [18] of the same compound?
Its TGI is > 100 µM.

What about the TGI [19] of the same compound?
Its TGI is > 100 µM.

And the TGI [20]?
Its TGI is > 100 µM.

And the TGI [21]?
Its TGI is > 100 µM.

What about the TGI [22] of the same compound?
The TGI was > 100 µM.

And the TGI [55]?
The TGI was > 100 µM.

What about the TGI [56] of the same compound?
Its TGI is > 100 µM.

What about the TGI [23] of the same compound?
Its TGI is > 100 µM.

And the TGI [62]?
Its TGI is > 100 µM.

And the TGI [25]?
Its TGI is > 100 µM.

What about the TGI [26] of the same compound?
The TGI was > 100 µM.

And the TGI [27]?
Its TGI is > 100 µM.

What about the TGI [28] of the same compound?
Its TGI is > 100 µM.

What about the TGI [63] of the same compound?
Its TGI is > 100 µM.

What about the TGI [30] of the same compound?
Its TGI is > 100 µM.

And the TGI [31]?
The TGI was > 100 µM.

And the TGI [32]?
The TGI was > 100 µM.

And the TGI [34]?
Its TGI is > 100 µM.

What about the TGI [35] of the same compound?
The TGI was > 100 µM.

And the TGI [58]?
The TGI was > 100 µM.

And the TGI [36]?
The TGI was > 100 µM.

What about the TGI [37] of the same compound?
The TGI was > 100 µM.

What about the TGI [38] of the same compound?
Its TGI is > 100 µM.

What about the TGI [39] of the same compound?
The TGI was > 100 µM.

And the TGI [40]?
Its TGI is > 100 µM.

What about the TGI [41] of the same compound?
The TGI was > 100 µM.

And the TGI [42]?
The TGI was > 100 µM.

And the TGI [45]?
The TGI was > 100 µM.

What about the TGI [46] of the same compound?
The TGI was > 100 µM.

And the TGI [47]?
Its TGI is > 100 µM.

What about the TGI [48] of the same compound?
The TGI was > 100 µM.

And the TGI [60]?
The TGI was > 100 µM.

And the TGI [49]?
Its TGI is > 100 µM.

And the TGI [50]?
The TGI was > 100 µM.

What about the TGI [51] of the same compound?
The TGI was > 100 µM.

What about the TGI [52] of the same compound?
Its TGI is > 100 µM.

And the TGI [53]?
Its TGI is > 100 µM.
